The text below walks through data of paper PMC11279401, “Inhibitory Effect of Selected Guaianolide and Germacranolide Sesquiterpene Lactones on Nitric Oxide Production” (Molecules, 2024).

Entries after “also recorded” stand apart in the source; their conditions may differ. Like-named read-outs stand apart in the source and are kept apart here.

Data set [1] is described as follows: Cytotoxicity assay (WST-1), viability of mouse peritoneal cells. In kind it is cell-based. The following applies: 10 µM compound, mouse peritoneal cells 1.0 × 10^6/mL, 24 h, read-out: Cell viability (O.D.) relative to untreated controls; for viability at 24 h, 10 µM: primary mouse peritoneal cells (macrophages). The method, then:
(§1) The tested compounds were dissolved in dimethyl sulfoxide (DMSO) to make stock solutions at a concentration of 50 mM, and then stored at −20 °C. Their biological activities were screened using a final concentration of 10 µM.
(§2) The animals were killed by cervical dislocation and injected intraperitoneally with 8 mL of sterile saline. Pooled peritoneal cells collected from the mice (n = 4–6 in individual experiments) were washed and re-suspended in a culture medium. The cell suspension was seeded onto 96-well round-bottom microplates (Costar, Corning, NY, USA). Final samples were supplemented to 100 µL volumes, containing 1–2 × 10^6 cells per well, depending on the assay. Cultures were maintained at 37 °C, 5% CO2 in a humidified incubator (Heraeus Holding GmbH, Hanau, Germany).
(§3) The viability of mouse peritoneal cells was determined using a colorimetric assay based on the cleavage of tetrazolium salt WST-1 by mitochondrial dehydrogenases in viable cells (Roche Diagnostics, Mannheim, Germany). The cells (1 × 10^6/mL) were cultured as described above. The viability of primary murine macrophages was tested in the presence of 10 µM of the respective test substance for […]. After the first 24 h of cultivation, WST-1 was added (10 µL), and the cells were kept in a Heraeus incubator at 37 °C for an additional 3 h. Triton X-100 (1%) was used as a common reference in the cytotoxicity assay. Optical density was evaluated at wavelengths of 450–690 nm.
On the technique in general: Formazan colour is commonly taken as a measure of viable cells.

Data set [2] concerns NO production by mouse peritoneal cells. In words: Nitric oxide assay (Griess), LPS + IFN-γ-activated mouse peritoneal cells. In kind it is cell-based. Conditions: 24 h; for Effect on IFN-γ + LPS-activated NO production (in words): 10 µM screening, mouse peritoneal cells; for IC50: (LPS + IFN-γ)-activated mouse peritoneal cells, concentrations 0.01–50.0 μM tested, read-out: Inhibition of nitric oxide production, IC50. As to the method:
The tested compounds were dissolved in dimethyl sulfoxide (DMSO) to make stock solutions at a concentration of 50 mM, and then stored at −20 °C. Their biological activities were screened using a final concentration of 10 µM. […] This concentration of DMSO was devoid of any effects in biological assays.
as §2, with “Germany). The complete RPMI-1640 culture medium (Sigma-Aldrich, St. Louis, MO, USA) contained 10% heat-inactivated fetal bovine serum, 2 mM L-glutamine, 50 µg/mL gentamicin, and 5 × 10^−5 M 2-mercaptoethanol (all Sigma-Aldrich).” for “Germany).”
High-output NO production was induced by a mixture of lipopolysaccharide (LPS from E. coli 0111:B4, 0.1 ng/mL; Sigma) and murine recombinant interferon-γ (IFN-γ, 5 ng/mL; R&D Systems, Minneapolis, MN, USA) in mouse peritoneal cells (2 × 10^6/mL). The tested compounds were applied concomitantly with both priming stimuli, and peritoneal macrophages were cultured for 24 h. The concentration of nitrites in the supernatants of the cell cultures was taken as a measure of NO production. It was detected in individual cell-free samples (50 µL) incubated for 5 min at ambient temperature with an aliquot of Griess reagent (1% sulfanilamide/0.1% naphtylendiamine/2.5% H3PO4). Absorbance at 540 nm was recorded using a microplate spectrophotometer (Tecan, Grödig, Austria). A nitrite calibration curve was used to convert absorbance values to µM of nitrite.
On the technique in general: Nitrite, measured by Griess reagent, commonly stands in for NO production.

A further data set deals with mouse peritoneal cells. In words: Cytotoxicity assay (WST-1), viability of mouse peritoneal cells. In kind it is cell-based. The following applies: 10 µM compound, primary murine macrophages. The method, then:
as §1, §2, §3

The subject of data set [3] is production of PGE2 by murine peritoneal cells. Put plainly: Prostaglandin E2 assay (ELISA), LPS-stimulated murine peritoneal cells. The data set is classed as cell-based, mouse. The following applies: 10 ng/mL LPS, 6 h, murine peritoneal cells 2.0 × 10^6/mL. As to the method:
as §2, with “Germany). The complete RPMI-1640 culture medium (Sigma-Aldrich, St. Louis, MO, USA) contained 10% heat-inactivated fetal bovine serum, 2 mM L-glutamine, 50 µg/mL gentamicin, and 5 × 10^−5 M 2-mercaptoethanol (all Sigma-Aldrich).” for “Germany).”
(§4) The concentration of PGE2 was determined in the supernatants of cells cultured (2 × 10^6/mL) after the addition of 10 ng/mL LPS for an interval of 6 h. The levels of cytokines TNF-α, IL-1β, IL-6, and IL-10, and the chemokine RANTES were determined in the supernatants of cells cultured (2 × 10^6/mL) in the presence of 1 µg/mL LPS for an interval 21 h. The extent of PGE2 release and cytokine secretion was determined using enzyme-linked immune-absorbent assay (ELISA) kits according to the manufacturer’s instructions (R&D Systems, Minneapolis, MN, USA).

Data set [4] concerns secretion of cytokines TNF-α, IL-1β, IL-6, IL-10 and chemokine RANTES by murine peritoneal cells. Put plainly: Cytokine assays (ELISA), LPS-stimulated murine peritoneal cells. The data set is classed as cell-based, mouse. Conditions: 1 µg/mL LPS, 21 h, IL-6, IL-10, RANTES. As to the method:
as §2, with “Germany). The complete RPMI-1640 culture medium (Sigma-Aldrich, St. Louis, MO, USA) contained 10% heat-inactivated fetal bovine serum, 2 mM L-glutamine, 50 µg/mL gentamicin, and 5 × 10^−5 M 2-mercaptoethanol (all Sigma-Aldrich).” for “Germany).”
as §4
In general terms: An ELISA detects its analyte on a solid surface through an enzyme-linked reagent.

Another data set deals with RAW264.7 macrophages. The following applies: cited from earlier work.
In data set [5] the test system is polymorphonuclear lymphocytes. The arrangement: method as in PMID 30653318. The following applies: cited from earlier work.

With `C=C1C(=O)O[C@H]2[C@H]1CC/C(C)=C/CC[C@@]1(C)O[C@@H]21` [Compound 19, parthenolide], in data set [1], the viability (usually the share of living cells, or the viability signal relative to a control) at 24 h, 10 µM was found to be 81.1 ± 6.34%. In data set [2], the “Effect on IFN-γ + LPS-activated NO production (in words)” value is reported as “substantially decreased the production of NO” and the IC50 was determined as 2.79 µM.
As to `C=C1C(=O)O[C@@H]2[C@H]3C(CO)=CC(=O)C3=C(C)CC[C@@H]12` [Compound 13, 8-deoxylactucin], in the data set on mouse peritoneal cells, the “Cytotoxicity / effect on cell viability (in words)” value (shortened to “Cytotoxicity / effect”) is given as “without any suppression of cell viability”. Also, the “Effect on IFN-γ + LPS-activated NO production (in words)” value in data set [2] was “significant NO-inhibitory effect”. Also, the IC50 is 2.81 µM in data set [2] and 13 µM in the data set with RAW264.7 macrophages (RAW264.7 macrophages, read-out: Inhibition of nitric oxide production, IC50). Further, in data set [3], the “Effect on immune-activated production of PGE2 (in words)” value was “did not interfere”. In addition, in data set [4], the “Effect on secretion of cytokines (in words)” value is listed as “did not interfere”.
For the compound `C=C1C[C@@H](O)[C@@H]2[C@H](OC(=O)[C@H]2C)[C@H]2[C@H](C)C(=O)C[C@@H]12` [Compound 1, 8-epiisoamberboin], the “Cytotoxicity / effect” value in the data set with mouse peritoneal cells is on record as “without any suppression of cell viability”. In data set [2] (10 µM compound, mouse peritoneal cells 2.0 × 10^6/mL), the “NO production relative to controls stimulated with IFN-γ + LPS” value was “about 25%”. In data set [2], the “Effect on IFN-γ + LPS-activated NO production (in words)” value is reported as “significant NO-inhibitory effect” and the IC50 is 23.8 µM.
With `CC1=CC(=O)C2=C(C)CC(OC3OC(CO)C(O)C(O)C3O)C3C(OC(=O)C3(C)O)C12` (stereo not drawn) [Compound 10, 11β-hydroxydeacetylmatricarin glucoside], the IC50 in data set [2] was greater than 100 µM.
On the same count and under the same terms, the figure for `C=C1C(=O)O[C@@H]2C[C@@H](C)[C@@H]3C=CC(=O)[C@@]3(C)[C@@H](O)[C@H]12` [Compound 15, helenalin] is 0.74 µM.
Same read-out and setting: with `CC1=CC(=O)C2=C(C)C[C@H](O)[C@@H]3[C@H](OC(=O)[C@H]3C)[C@@H]12` [Compound 3, deacetylmatricarin] the figure was greater than 100 µM.
Same read-out and setting: with `CC1=C2C(=O)C=C(CO)[C@@H]2[C@H]2OC(=O)[C@@H](C)[C@@H]2[C@@H](O)C1` [Compound 4, 11β,13-dihydrolactucin] the figure was greater than 100 µM; with `CC1=C2C(=O)C=C(COC3OC(CO)C(O)C(O)C3O)C2C2OC(=O)C(C)C2CC1` (stereo not shown) [Compound 7, crepidiaside B], greater than 100 µM.
Take eupatolide [Compound 17]: in data set [2], the “Effect on IFN-γ + LPS-activated NO production (in words)” value is given as “significant NO-inhibitory effect” and the IC50 came to 4.38 µM. The IC50 in the data set on RAW264.7 macrophages (murine macrophage line RAW264.7, read-out: Inhibitory potency against NO production, concentration range) was 1.54 to 6.43 µM.
On to `C=C(CO)C(=O)O[C@H]1CC(=C)[C@@H]2C[C@H](O)C(=C)[C@@H]2[C@H]2OC(=O)C(=C)[C@@H]21` [Compound 14, cynaropicrin], for which the viability at 24 h, 10 µM in data set [1] was roughly 50%. The “Cytotoxicity / effect” value in the data set on mouse peritoneal cells is reported as “cytotoxic; also recorded: remarkable cytotoxicity”. Besides, the IC50 in data set [2] was 9.87 µM.
`C=C1CC(O)C2C(=C)C(=O)OC2C2C1CC(OC1OC(CO)C(O)C(O)C1O)C2C` (stereo not shown) [Compound 11, 11,13-dehydro-8-epiisolippidiol glucoside]: the IC50 in data set [2] is greater than 100 µM.
Turning to `C=C1C[C@@H](O)[C@@H]2[C@H](OC(=O)[C@H]2C)[C@H]2[C@H](C)[C@@H](O)C[C@@H]12` [Compound 2, 8-epiisolippidiol], the IC50 in data set [2] is greater than 100 µM.
Consider `C=C1CC(O)C2C(C)C(=O)OC2C2C1CC(OC1OC(CO)C(O)C(O)C1O)C2C` (stereo not shown) [Compound 5, 4,8-diepiisolippidiol glucoside], for which the IC50 in data set [2] is greater than 100 µM.
On to `CC=C(C)C(=O)OC1(C)C(=O)OC2C=C(C)CCC=C(C)CCC(OC(C)=O)C21` (stereo not shown) [Compound 21, laserolide], for which the “Cytotoxicity / effect” value in the data set with mouse peritoneal cells is “did not show any cytotoxicity”. For the same compound, in data set [2], the IC50 worked out at 90.2 µM.
As for `C=C1C(=O)O[C@@H]2/C=C(\C)CC/C=C(\C)C[C@@H](OC(=O)/C(=C/CO)CO)[C@@H]12` [Compound 18, eupatoriopicrin], the viability at 10 µM in data set [1] was roughly 10%. The “Cytotoxicity / effect” value with mouse peritoneal cells was “highly toxic; also recorded: remarkable cytotoxicity”. Also, the IC50 in data set [2] was 1.65 µM. Moreover, in data set [5], the “Concentration up to which not toxic” value was no more than 2500 nM.
As for `CC1=CC(=O)C2=C(C)CCC3C(OC(=O)C3(C)OC3OC(CO)C(O)C(O)C3O)C12` (stereo not drawn) [Compound 9, 11β-hydroxyleukodin glucoside], in data set [2], the IC50 is greater than 100 µM.
With `C=C1C(=O)OC2C1CC(O)C(C)=CCCC1(C)OC21` (stereo not shown) [Compound 20, 9-hydroxyparthenolide], in data set [1], the viability at 10 µM came to 77 ± 5.09%. Besides, in data set [2], the “Effect on IFN-γ + LPS-activated NO production (in words)” value is “substantially decreased the production of NO” and the IC50 was found to be 5.64 µM.
In the case of `C=C1C(O)CC2C(C)C(=O)OC2C2C(=C)C(OC3OC(CO)C(O)C(O)C3O)CC12` (stereo not shown) [Compound 8, ixerin F], the IC50 in data set [2] is greater than 100 µM.
On the same count and under the same terms, the figure for `CC1=CC(=O)C2=C(C)CC(OC3OC(CO)C(O)C(O)C3O)C3C(C)C(=O)OC3C12` (stereo not shown) [Compound 6, deacetylmatricarin glucoside] is greater than 100 µM.
As to `C=C1C(=O)O[C@@H]2/C=C(\C)CC/C=C(\C)CC[C@@H]12` [Compound 16, costunolide], the viability at 24 h, 10 µM in data set [1] was roughly 50%. In addition, the “Cytotoxicity / effect” value with mouse peritoneal cells was “moderate toxicity; also recorded: remarkable cytotoxicity”. Also, the IC50 in data set [2] stood at 3.2 µM.
With `C=C1C(=O)OC2C1CCC(C)(O)C1CC(OC3OC(CO)C(O)C(O)C3O)C(=C)C21` (stereo not shown) [Compound 12, ixerin D], in data set [2], the IC50 is greater than 100 µM.
